# Laboratory results as given in patent publication US20130095059A1, “INHALED NO DONOR KMUPS DERIVATIVE PREVENTING ALLERGIC PULMONARY VASCULAR AND BRONCHIAL INFLAMMATION VIA SUPPRESSED CYTOKINES, INOS AND INFLAMMATORY CELL COUNTS IN ASTHMA MODEL” (priority 2007, published 2013).
# Legend:
# sGCα1 = experiment: Ovalbumine model, sGCα1 expression; format: in vivo, BALB/c mice; settings: 28-day experiment; nebulization
# Method: (§1) In this long-term experiment, 6-8 week old BALB/c female mice were sensitized on days 1 and 8 by intra-peritoneal injection (i.p.) of ovalbumine (10 μg) (Sigma-Aldrich, Schnelldorf, Germany) adsorbed to 2 mg aluminum hydroxide (AlumInject; Perbio, Erembodegem, Belgium). Mice were divided into three groups. In Group 1, a control group was only exposed to saline nebulization by aerosol. The other 2 groups were subjected to ovalbumine (1%) nebulization. Before each challenge with ovalbumine, mice were either exposed to saline nebulization (Group 2) or KMUP-1 nebulization (5 mM) for 30 min by aerosol (Group 3).
# The lung tissues were homogenized, washed with PBS and incubated in lysis buffer in addition to a protease inhibitor cocktail (Sigma, St. Louis, Mo.) to obtain extracts of lung proteins. A Western blot analysis was performed as described previously (Wu B N, et al., 2006). The samples were loaded to 10% SDS-PAGE gels and were separated at 120 V for 90 min. The blots were incubated with anti-eNOS antibody diluted at a ratio of 1:500, anti-sGCα1 antibody diluted at a ratio of 1:2000, anti-PKG antibody diluted at a ratio of 1:500, anti-VCAM-1 antibody diluted at a ratio of 1:500, anti-ICAM-1 antibody diluted at a ratio of 1:500, and anti-MMP-9 antibody diluted at a ratio of 1:600 overnight at 4° C. […]
# 5-HT2A receptor = biological target: T1, 5-HT2A receptor (Homo sapiens, UniProt P28223); experiment: Displacement of radioligand binding, 5-HT2A; settings: [^3H]-ketanserin, human recombinant CHO-K1 cells
# T1 construct: full length clones of 5-HT2A, 5-HT2B and 5-HT2C receptor were prepared from CHO-K1 cells; expressed in transfected cells; host or cells: CHO-K1
# T1 sequence (P28223 whole entry): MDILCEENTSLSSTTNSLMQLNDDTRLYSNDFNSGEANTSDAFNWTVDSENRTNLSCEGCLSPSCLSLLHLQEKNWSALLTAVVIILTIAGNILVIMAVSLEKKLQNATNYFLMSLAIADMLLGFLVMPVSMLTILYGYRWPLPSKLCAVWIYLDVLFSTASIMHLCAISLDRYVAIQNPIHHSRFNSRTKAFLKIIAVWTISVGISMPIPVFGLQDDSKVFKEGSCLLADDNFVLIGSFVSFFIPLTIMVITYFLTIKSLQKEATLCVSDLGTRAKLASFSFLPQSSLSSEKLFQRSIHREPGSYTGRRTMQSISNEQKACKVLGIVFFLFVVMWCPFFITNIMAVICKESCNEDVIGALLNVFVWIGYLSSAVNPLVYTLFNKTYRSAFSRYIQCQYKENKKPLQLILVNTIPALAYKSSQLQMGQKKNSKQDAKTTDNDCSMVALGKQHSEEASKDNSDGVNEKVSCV
# Method: Displacement of Radioligand Binding Assay
# As described previously, full length clones of 5-HT2A, 5-HT2B and 5-HT2C receptor were prepared from CHO-K1 cells. […] IC50 represents the concentration of competing ligand which displaces 50% of the specific binding of the radioligand. Ki values for competition curves were calculated using the Cheng-Prusoff equation (Cheng, 2001).
# PCNA = experiment: PASMCs proliferation (PCNA) in MCT-treated lung tissues; format: in vivo, rats; settings: day 21 after MCT injection
# Method: We evaluated proliferating cell nuclear antigen (PCNA) to assess PASMCs proliferation in rats treated with MCT alone or with KMUP-1. Lung tissue sections were de-paraffinized in xylene and then treated with a graded series of alcohol washes, rehydrated in PBS (pH 7.5), and incubated with target retrieval solution (DAKO Co, Tokyo, Japan) in a water bath at 90° C. for 20 min. Endogenous peroxidase activity was blocked with H2O2 in PBS (3%, vol/vol) for 5 min. Slides were then washed in PBS, incubated for 30 min in a protein blocking solution, and incubated for 30 min with anti-PCNA mouse monoclonal antibody (PC-10, 1:200, Dako). Antibodies were washed off, and the slides were processed with an […] LSAB and system horseradish peroxidase detection kit (DAKO Co, Tokyo, Japan). Brown color was generated with a DAB substrate, and nuclei were counter-stained with hematoxylin.
# NO = experiment: Nitric oxide production in HPAEC (Griess); format: cell-based, human; settings: 10 μM, 24 h before adding 5-HT
# Method: Production of NO in HPAEC was determined using the Griess method. The three step Greiss test converts nitrate (NO3^−) into nitrite (NO2^−) giving a total NO2^− concentration from a standard calibration curve. HPAEC were incubated with or without KMUP-1 (10 μM) for 24 h and then incubated with 5-HT (10 μmol/L) for 30 min. Media samples from HPAEC were taken and the NO concentration was determined. Six independent experiments were carried out and data are reported as the mean mean±SEM.
# MMP-9 = experiment: Ovalbumine model, MMP-9 expression, zymography and immunostaining; format: in vivo, BALB/c mice
# Method: as §1
# The gelatinolytic activity of MMP-9 was measured by gelatin zymography as described previously (Cataldo D D, et al., 2002). Briefly, BALF (10 μl) was subjected to electrophoresis in 10% polyacrylamide gel containing gelatin (1 mg/ml). The gel was washed in 2.5% Triton X-100 to permit re-naturation of gelatinases and stained with Coomassie blue after overnight incubation. Destaining visualized clear zones of lysis against a blue background indicated the gelatinase activity (Hibbs, M S, et al., 1985).
# The lung tissues were homogenized, washed with PBS and incubated in lysis buffer in addition to a protease inhibitor cocktail (Sigma, St. Louis, Mo.) to obtain extracts of lung proteins. A Western blot analysis was performed as described previously (Wu B N, et al., 2006). The samples were loaded to 10% SDS-PAGE gels and were separated at 120 V for 90 min. The blots were incubated with anti-eNOS antibody diluted at a ratio of 1:500, anti-sGCα1 antibody diluted at a ratio of 1:2000, anti-PKG antibody diluted at a ratio of 1:500, anti-VCAM-1 antibody diluted at a ratio of 1:500, anti-ICAM-1 antibody diluted at a ratio of 1:500, and anti-MMP-9 antibody diluted at a ratio of 1:600 overnight at 4° C. The membranes were stripped and re-blotted with anti-actin antibody (Sigma, St. Louis, Mo.) to verify the equal loading of protein in each lane.
# Immunohistochemical analysis of eNOS enhancement by KMUP-1 was performed as follows. The lungs were perfused with saline followed by 10% formalin and then placed in 10% formalin for paraffin embedding. The lung tissues were cut into […] sections onto slides, dewaxed in 100% xylene, and then re-hydrated in graded alcohol solutions. Throughout the procedures, slides were washed as appropriate in PBS. Antigen retrieval was performed by microwave treatment for eNOS immunostaining. Sections were treated with 3% H2O2 (10 min) to inhibit endogenous peroxidases and incubated with normal serum (60 min) to reduce nonspecific binding of secondary antibodies. Sections were then incubated at 4° C. overnight with eNOS antibodies. After washing off unbounded primary antibodies, sections were incubated with secondary biotinylated antibodies against mouse or rabbit (DAKO Co., Japan) (60 min), followed by incubation in avidin/biotin/horseradish peroxidase complex (DAKO Co., Japan) (30 min) Subsequently, peroxidase activity was visualized by incubation (3 min) with 0.05% 3,3′-diaminobenzidine (DAKO Co., Japan), which gives a brown reaction product. The reaction was stopped by washing with water. The slides were counterstained with hematoxylin. For immunostaining of MMP-9 in lung tissue, the de-paraffinized 3-5 μm sections of lung tissue was performed as above eNOS, but using MMP-9 antibody.
# NOx = experiment: Ovalbumine model, NO metabolites (NOx) in BALF; format: in vivo, BALB/c mice; settings: 24 hrs after last challenge; basal 65.4±8.2, ovalbumine 162.8±15.7
# Method: as §1
# The remaining BALF was centrifuged (900 g, 1200 rpm, 10 min) and the supernatant frozen (−80° C.) until determination of nitrite and nitrate by the Griess reaction. BALF (100 μL) was incubated (37° C.) for 30 min with N-2-hydroxyethylpiperazine-N′-ethane sulphonic acid buffer (HEPES) (50 mM, pH 7.4), flavin adenine dinucleotide (5 μM), nicotinamide adenine dinucleotide phosphate (0.1 mM), distilled water (290 μl), and nitrate reductase (0.2 U/ml) for the conversion of nitrate into nitrite. […] The samples were then incubated (25° C., 10 min) with Griess reagent [N-(1-naphthyl)-ethylenediamine: 0.2% (w/v), sulphanilamide: 2% (w/v), solubilized in double-distilled water: 95% and phosphoric acid: 5% (v/v)] and the absorbance measured at 540 nm. […]
structure (smiles),measurement,setting,value
"Cn1c(=O)c2c(ncn2CCN2CCN(c3ccccc3Cl)CC2)n(C)c1=O [KMUP-1, 7-[2-[4-(2-chlorophenyl)piperazinyl]ethyl]-1,3-dimethylxanthine]",decreased sGCα1 expression by ovalbumine sensitization,sGCα1,significantly reduced
same,IC50,5-HT2A receptor,340 nM
same,Ki,5-HT2A receptor; Cheng-Prusoff,97.1 nM
same,number of PCNA-positive cells in pulmonary artery walls,PCNA,markedly lower
same,release of NO compared to 5-HT treatment alone,NO,raised
same,increased MMP-9 expression by ovalbumine sensitization,"MMP-9; 28-day experiment, nebulization",significantly reduced
same,zymography of MMP-9,"MMP-9; BALF, versus ovalbumine",decreased
same,MMP-9 positive cells (immunostaining),MMP-9; ovalbumine-sensitized and -challenged mice,hardly detected
same,levels of NOx (nitrate+nitrite) in BALF,NOx,86.3 ± 17.3 µM
